# Experimental data taken from patent publication US7199114B2, “Triterpene quaternary salts as biologically active surfactants” (The Regents of the University of Minnesota, priority 2002, dated 2007).
# Tests used:
# [1] = tested on: Enterococcus faecium Vancomycin-sensitive (first listed); assay: Anti-bacterial activity, broth culture MIC; type: cell-based; settings: Enterococcus faecium Vancomycin-sensitive (r11/r12), broth culture, triplicate; for MIC: read-out: Approximate Minimum Inhibitory Concentration, MIC
# Method: (§1) Several uncharged or negatively charged triterpenes, and several positively charged triterpenes of the invention were tested for anti-bacterial activity against antibiotic-susceptible and antibiotic resistant strains of four types of bacteria of concern in clinics and hospitals. The triterpenes weres tested in broth culture in triplicate for ability to inhibit bacterial growth. The compounds tested are those listed below.
# (§2) The lowest concentration which inhibits bacterial growth is referred to as the minimum inhibitory concentration (MIC), the standard measurement of anti-microbial activity.
# [2] = tested on: Enterococcus faecium Vancomycin-sensitive (second listed); assay: Anti-bacterial activity, broth culture MIC; type: cell-based; settings: Enterococcus faecium Vancomycin-sensitive (r13/r14), broth culture, triplicate; for MIC: read-out: Approximate Minimum Inhibitory Concentration, MIC
# Method: as §1, §2
# [3] = tested on: Staphylococcus aureus Methicillin-sensitive; assay: Anti-bacterial activity, broth culture MIC; type: cell-based; settings: Staphylococcus aureus Methicillin-sensitive, broth culture, triplicate; for MIC: read-out: Approximate Minimum Inhibitory Concentration, MIC
# Method: as §1, §2
# [4] = tested on: Staphylococcus aureus Methicillin-resistant; assay: Anti-bacterial activity, broth culture MIC; type: cell-based; settings: Staphylococcus aureus Methicillin-resistant, broth culture, triplicate; for MIC: read-out: Approximate Minimum Inhibitory Concentration, MIC
# Method: as §1, §2
# [5] = Turf plot trial at Clemson University (Example 85), turf quality; type: in vivo, creeping bentgrass, cv. Pennlinks; settings: 1 to 9 scale, 50 grams active ingredient per 1000 square feet
# Method: (§3) Plots of creeping bentgrass, cv. “Pennlinks,” were treated with water based sprays of the test compounds. Sprays were delivered by CO2-charged sprayer to deliver the equivalent of 2 gallons of spray per 1000 sq. ft of plot area. Plots were 15 sq. ft. each, and treatments were mixed to apply material to 75 sq. ft (5 replicates), although only 4 replicates were treated. […] Daconil Ultrex® was applied at 3.2 oz./1000 sq. ft. for 14 days. The experiment used a randomized complete block design, with 4 replicates per treatment. Disease pressure was high. Pennlinks […] is moderately to highly susceptible to both dollar spot and brown patch. For brown patch, caused by Rhozoctonia sofani. a visual estimate of the percent of the plot area affected was recorded. Turf quality was estimated on a 1 to 9 scale, with 1 being worst and 9 being perfect. A rating of 6 is considered acceptable.
# (§4) Plots of creeping bentgrass, cv. Pennlinks, were treated with water-based sprays as in Example 84 at Clemson University. Treatment application dates were May 7. May 14, May 28, and June 11. Plots were rated visually, estimating the percent of the area affected by dollar spot fungus […]. Turf quality was rated on a 1 to 9 scale, with 9 being perfect turf, as in Example 84. Disease pressure was moderately high to high when the trial was initiated, with existing dollar spot present.
# [6] = tested on: dollar spot fungus; assay: Turf plot trial at Clemson University (Example 85), area affected by dollar spot; type: in vivo, Agrostis stolonifera; settings: 50 grams active ingredient per 1000 square feet
# Method: as §3, §4
# [7] = tested on: dollar spot fungus (Agrostis stolonifera); assay: as above; type: in vivo; settings: for % of area infected: 50 grams active ingredient per 1000 square feet
# Method: as §3, §4
structure (smiles),measurement,setting,value
C=C(C)[C@@H]1CC[C@]2(CO)CC[C@]3(C)C(CCC4[C@@]5(C)CC[C@H](OC(=O)C[N+]67CCN(CC6)CC7)C(C)(C)C5CC[C@]43C)C12.[Cl-] (stereo partly shown) [Compound 6],MIC,[1],5 µg/mL
same,MIC,[2],10 µg/mL
same,MIC,[3],2 µg/mL
same,MIC,[4],2 µg/mL
"C=C(C)[C@@H]1CC[C@]2(COC(=O)C(C)[N+]34CCN(CC3)CC4)CC[C@]3(C)C(CCC4[C@@]5(C)CC[C@H](OC(=O)C(C)[N+]67CCN(CC6)CC7)C(C)(C)C5CC[C@]43C)C12.Cl.Cl (stereo partly shown) [Compound 22, Lup-20(29)-ene-3,28-bis[N-(1,4-diazabicyclo [2.2.2]octyl)-2-propionate]-dichloride]",Turf quality,"[5]; Table 5, Jun. 3, 2002",4.80 abc
same,Turf quality,"[5]; Table 5, Jun. 17, 2002",5.07 ab
same,Turf quality,"[5]; Table 5, May 27, 2002",3.05 b
same,Turf quality,"[5]; Table 6, May 8, 2002",3.00 a
same,Turf quality,"[5]; Table 6, May 13, 2002",3.13 a
same,Turf quality,"[5]; Table 6, May 20, 2002",2.95 ab
same,% of area infected,"[6]; Table 5 c2, Jun. 3, 2002",24.5 a %
same,% of area infected,"[6]; Table 5 c4, Jun. 3, 2002",17.3 ab %
same,% of area infected,"[6]; Table 6, May 8, 2002",34.3 a %
same,% of area infected,"[6]; Table 6, May 13, 2002",28.5 a %
same,% of area infected,"[6]; Table 6, May 20, 2002",31.5 bc %
same,% of area infected,"[6]; Table 6, May 27, 2002",32.0 ab %
"C=C(C)[C@@H]1CC[C@]2(COC(=O)C[N+](C)(C)CCCCCCCC)CC[C@]3(C)C(CCC4[C@@]5(C)CC[C@H](OC(=O)C[N+](C)(C)CCCCCCCC)C(C)(C)C5CC[C@]43C)C12.[Cl-].[Cl-] (stereo partly shown) [Compound 53, Lup-20(29)-ene-3,28-bis(octyldimethylammoniumacetate) dichloride]",Turf quality,"[5]; Table 5, Jun. 3, 2002",5.18 ab
same,Turf quality,"[5]; Table 5, Jun. 17, 2002",5.38 ab
same,Turf quality,"[5]; Table 5, May 27, 2002",3.60 ab
same,Turf quality,"[5]; Table 6, May 8, 2002",3.00 a
same,Turf quality,"[5]; Table 6, May 13, 2002",3.05 a
same,Turf quality,"[5]; Table 6, May 20, 2002",3.25 ab
same,% of area infected,"[6]; Table 5 c2, Jun. 3, 2002",22.5 a %
same,% of area infected,"[6]; Table 5 c4, Jun. 3, 2002",19.5 ab %
same,% of area infected,"[6]; Table 6, May 8, 2002",33.5 a %
same,% of area infected,"[6]; Table 6, May 13, 2002",28.5 a %
same,% of area infected,"[6]; Table 6, May 20, 2002",27.3 bc %
same,% of area infected,"[6]; Table 6, May 27, 2002",26.8 bcd %
"C=C(C)[C@@H]1CC[C@]2(COC(=O)C[N+](C)(C)CCCCCCCCCCCCCC)CC[C@]3(C)C(CCC4[C@@]5(C)CC[C@H](OC(=O)C[N+](C)(C)CCCCCCCCCCCCCC)C(C)(C)C5CC[C@]43C)C12.[Cl-].[Cl-] (stereo partly shown) [Compound 55, Lup-20(29)-ene-3,28-bis(tetradecyldimethylamoniumacetate) dichloride]",Turf quality,"[5]; Table 5, Jun. 3, 2002",5.10 ab
same,Turf quality,"[5]; Table 5, Jun. 17, 2002",5.2 ab
same,Turf quality,"[5]; Table 5, May 27, 2002",3.38 ab
same,Turf quality,"[5]; Table 6, May 8, 2002",3.05 a
same,Turf quality,"[5]; Table 6, May 13, 2002",3.00 a
same,Turf quality,"[5]; Table 6, May 20, 2002",2.97 ab
same,% of area infected,"[6]; Table 5 c2, Jun. 3, 2002",28.8 a %
same,% of area infected,"[6]; Table 5 c4, Jun. 3, 2002",24.3 a %
same,% of area infected,"[6]; Table 6, May 8, 2002",33.5 a %
same,% of area infected,"[6]; Table 6, May 13, 2002",30.0 a %
same,% of area infected,"[6]; Table 6, May 20, 2002",32.8 b %
same,% of area infected,"[6]; Table 6, May 27, 2002",29.3 a-d %
"C=C(C)[C@@H]1CC[C@]2(CO)CC[C@]3(C)C(CCC4[C@@]5(C)CC[C@H](OC(=O)C[N+](C)(CCCCCCCCCC)CCCCCCCCCC)C(C)(C)C5CC[C@]43C)C12.[Cl-] (stereo partly shown) [Compound 67, Betulin-3-(didecylmethylammoniumacetoxy) chloride]",Turf quality,"[5]; Table 5, Jun. 3, 2002",6.00 a
same,Turf quality,"[5]; Table 5, Jun. 17, 2002",5.80 a
same,Turf quality,"[5]; Table 5, May 27, 2002",4.85 a
same,Turf quality,"[5]; Table 6, May 8, 2002",3.20 a
same,Turf quality,"[5]; Table 6, May 13, 2002",3.17 a
same,Turf quality,"[5]; Table 6, May 20, 2002",3.55 a
same,% of area infected,"[7]; Table 5 c2, Jun. 3, 2002",13.0 b %
same,% of area infected,"[7]; Table 5 c4, Jun. 3, 2002",9.0 b %
same,% of area infected,"[7]; Table 6, May 8, 2002",28.3 a %
same,% of area infected,"[7]; Table 6, May 13, 2002",26.0 a %
same,% of area infected,"[7]; Table 6, May 20, 2002",24.3 c %
same,% of area infected,"[7]; Table 6, May 27, 2002",21.0 d %
same,extent of dollar spot infection,"[7]; by the end of the treatment trial, compared to the no treatment control (text summary of Tables 5 and 6)",best results
"C=C(C)[C@@H]1CC[C@]2(C)CC[C@]3(C)[C@H](CC[C@@H]4[C@@]5(C)C=C(O)C(=O)C(C)(C)[C@@H]5CC[C@]43C)[C@@H]12 [Compound 85, lupeneno-1-ene-2-ol, reference compound]",MIC,[1],20 µg/mL
same,MIC,[2],50 µg/mL
same,MIC,[3],50 µg/mL
same,MIC,[4],100 µg/mL
"C=C(C)C1CCC2(C)CCC3(C)C(CCC4C5(C)CCC(OC(=O)C=CC(=O)O)C(C)(C)C5CCC43C)C12 (stereo not shown) [Compound 86, lupeol-3-maleate, reference compound]","Approximate Minimum Inhibitory Concentration, MIC",[1],10 µg/mL
same,"Approximate Minimum Inhibitory Concentration, MIC",[1]; listed as lupeol-3-maleate,≤ 10 µg/mL
same,"Approximate Minimum Inhibitory Concentration, MIC",[2],50 µg/mL
"C=C(C)C1CCC2(COC(=O)CCC(=O)O)CC[C@@]3(C)C(CCC4[C@@]5(C)CCC(OC(=O)CCC(=O)O)C(C)(C)C5CC[C@]43C)C12 (stereo partly shown) [Compound 91, betulin-3,28-disuccinate, reference compound]","Approximate Minimum Inhibitory Concentration, MIC",[3],200 µg/mL
"C=C(C)C1CCC2(COC(=O)CCC(=O)O)CC[C@@]3(C)C(CCC4[C@@]5(C)CCC(O)C(C)(C)C5CC[C@]43C)C12 (stereo partly shown) [Compound 92, betulin-28-succinate, reference compound]","Approximate Minimum Inhibitory Concentration, MIC",[3],50 µg/mL
"C=C(C)[C@@H]1CC[C@]2(COC(=O)/C=C\C(=O)O)CC[C@]3(C)[C@H](CC[C@@H]4[C@@]5(C)CC[C@H](OC(=O)/C=C\C(=O)O)C(C)(C)[C@@H]5CC[C@]43C)[C@@H]12 [Compound 93, betulin-3,28-dimaleate, reference compound]","Approximate Minimum Inhibitory Concentration, MIC",[3],200 µg/mL
same,"Approximate Minimum Inhibitory Concentration, MIC",[4],200 µg/mL
"C=C(C)[C@@H]1CC[C@]2(COC(=O)/C=C\C(=O)O)CC[C@]3(C)[C@H](CC[C@@H]4[C@@]5(C)CC[C@H](O)C(C)(C)[C@@H]5CC[C@]43C)[C@@H]12 [Compound 94, betulin-28-maleate, reference compound]","Approximate Minimum Inhibitory Concentration, MIC",[1],200 µg/mL
same,"Approximate Minimum Inhibitory Concentration, MIC",[2],200 µg/mL
same,"Approximate Minimum Inhibitory Concentration, MIC",[3],50 µg/mL
